Patent US6624182B1, “Hydroxyphenylvinylthiazoles” (Ciba Specialty Chemicals Corporation, priority 1999, dated 2003)

Key:
Experiment in all cases: Determination of the minimum inhibitory concentration (MIC value) in microtitre plates
[1] = test system: P. aeruginosa; format: cell-based, Pseudomonas aeruginosa CIP A-22; settings: optical density at 620 nm, 48 hours at 37° C., MIC = ≦20% growth; tested at 100; 10 and 1 ppm (approximate values); (2), (3), (4) at 120; 60; 30; 15; 7.5; 3.75 ppm
Method: (§1) Determination of the Minimum Inhibitory Concentration (MIC Value) in Microtitre Plates Nutrient Medium Casein/soybean flour/peptone bouillon for the preparation of preliminary cultures of the test bacteria and yeast. Mycological slant agar for the preliminary culture of moulds Examples of Test Microbes: Bacteria: Pseudomonas aeruginosa CIP A-22 Procedure: The test substances are pre-dissolved in dimethyl sulfoxide (DMSO) and tested in a series of dilutions of 1:2. Bacteria and yeast are cultured overnight in CASO bouillon; the mould is cultured on myco-logical slant agar and sponged off with 10 ml of 0.85% sodium chloride solution (+0.1% Triton X-100). All the test microbes are adjusted to a germ count of 1−5×10^6 KBE/ml using 0.85% sodium chloride solution. The test substances are pre-pipetted into microtitre plates in an amount of 8 μl per well. Pre-diluted microbe suspensions are diluted 1:100 in CASO bouillon (bacteria and yeast) or Sabouraud 2% glucose bouillon (mould) and added to the test substances in an amount of 192 μl per well. The test batches are incubated for 48 hours at 37° C. (bacteria and yeast) or for 5 days at 28° C. (mould). After incubation, the growth is determined by means of the clouding of the test batches (optical density) at 620 nm in a microplate reader. The concentration of substance at which (compared with the growth control) a marked inhibition of growth (≦20% growth) of the test microbes can be observed is given as the minimum inhibitory concentration (MIC value). One microtitre plate is used per test microbe and substance concentration. All substances are tested in duplicate.

[2] = test system: C. albicans; format: cell-based, Candida albicans ATCC 10231; settings: optical density at 620 nm, 48 hours at 37° C., MIC = ≦20% growth; tested at 100; 10 and 1 ppm (approximate values); (2), (3), (4) at 120; 60; 30; 15; 7.5; 3.75 ppm
Method: as §1, with “Yeast: Candida albicans ATCC 10231” for “Bacteria: Pseudomonas aeruginosa CIP A-22”

[3] = test system: S. aureus; format: cell-based; settings: optical density at 620 nm, 48 hours at 37° C., MIC = ≦20% growth; tested at 100; 10 and 1 ppm (approximate values); (2), (3), (4) at 120; 60; 30; 15; 7.5; 3.75 ppm
From the text: as §1, with “Staphylococcus hominis DMS 20328” for “Pseudomonas aeruginosa CIP A-22”

[4] = test system: E. coli; format: cell-based, Escherichia coli NCTC 8196; settings: optical density at 620 nm, 48 hours at 37° C., MIC = ≦20% growth; tested at 100; 10 and 1 ppm (approximate values); (2), (3), (4) at 120; 60; 30; 15; 7.5; 3.75 ppm
Method: as §1, with “Escherichia coli NCTC 8196” for “Pseudomonas aeruginosa CIP A-22”

[5] = test system: A. niger; format: cell-based, Aspergillus niger ATCC 6275; settings: optical density at 620 nm, 5 days at 28° C., MIC = ≦20% growth; tested at 100; 10 and 1 ppm (approximate values); (2), (3), (4) at 120; 60; 30; 15; 7.5; 3.75 ppm
Method: as §1, with “Mould: Aspergillus niger ATCC 6275” for “Bacteria: Pseudomonas aeruginosa CIP A-22”

Oc1ccc(/C=C/c2nc(-c3ccc(N4CCCC4)cc3)cs2)cc1 [Compound of formula (27)]
>100 ppm: MIC values in ppm P. aeruginosa [1] | MIC values in ppm C. albicans [2] | MIC values in ppm S. aureus [3] | MIC values in ppm E. coli [4] | MIC values in ppm A. niger [5]

COc1cc(/C=C/c2nc(C(C)(C)C)cs2)ccc1O [Compound of formula (20)]
>100 ppm: MIC values in ppm P. aeruginosa [1] | MIC values in ppm C. albicans [2] | MIC values in ppm S. aureus [3] | MIC values in ppm E. coli [4] | MIC values in ppm A. niger [5]

COc1ccc(/C=C/c2nc(C(C)(C)C)cs2)cc1O [Compound of formula (18)]
>100 ppm: MIC values in ppm P. aeruginosa [1] | MIC values in ppm C. albicans [2] | MIC values in ppm S. aureus [3] | MIC values in ppm E. coli [4] | MIC values in ppm A. niger [5]

CCc1csc(/C=C/c2ccccc2O)n1 [Compound of formula (45)]
>100 ppm: MIC values in ppm P. aeruginosa [1] | MIC values in ppm C. albicans [2] | MIC values in ppm S. aureus [3] | MIC values in ppm E. coli [4] | MIC values in ppm A. niger [5]

Oc1cccc(/C=C/c2nc(-c3ccccc3)cs2)c1 [Compound of formula (51)]
>100 ppm: MIC values in ppm P. aeruginosa [1] | MIC values in ppm C. albicans [2] | MIC values in ppm S. aureus [3] | MIC values in ppm E. coli [4] | MIC values in ppm A. niger [5]

Oc1cc(OCc2ccccc2)ccc1/C=C/c1nc(-c2ccc(F)cc2)cs1 [Compound of formula (14)]
>100 ppm: MIC values in ppm P. aeruginosa [1] | MIC values in ppm C. albicans [2] | MIC values in ppm S. aureus [3] | MIC values in ppm E. coli [4] | MIC values in ppm A. niger [5]

CCOc1cc(/C=C/c2nc(-c3ccc(N4CCCC4)cc3)cs2)ccc1O [Compound of formula (30)]
>100 ppm: MIC values in ppm P. aeruginosa [1] | MIC values in ppm C. albicans [2] | MIC values in ppm S. aureus [3] | MIC values in ppm E. coli [4] | MIC values in ppm A. niger [5]

CCc1csc(/C=C/c2ccc(OC)cc2O)n1 [Compound of formula (44)]
>100 ppm: MIC values in ppm P. aeruginosa [1] | MIC values in ppm C. albicans [2] | MIC values in ppm S. aureus [3] | MIC values in ppm E. coli [4] | MIC values in ppm A. niger [5]

Oc1ccccc1/C=C/c1nc(-c2ccc(F)cc2)cs1 [Compound of formula (10)]
>100 ppm: MIC values in ppm P. aeruginosa [1] | MIC values in ppm C. albicans [2] | MIC values in ppm S. aureus [3] | MIC values in ppm E. coli [4] | MIC values in ppm A. niger [5]

COc1ccc(/C=C/c2nc(-c3ccccc3)cs2)cc1O [Compound of formula (52)]
>100 ppm: MIC values in ppm P. aeruginosa [1] | MIC values in ppm C. albicans [2] | MIC values in ppm S. aureus [3] | MIC values in ppm E. coli [4] | MIC values in ppm A. niger [5]

CCOc1cc(/C=C/c2nc(-c3ccccc3)cs2)ccc1O [Compound of formula (53)]
>100 ppm: MIC values in ppm P. aeruginosa [1] | MIC values in ppm C. albicans [2] | MIC values in ppm S. aureus [3] | MIC values in ppm E. coli [4] | MIC values in ppm A. niger [5]

COc1ccc(/C=C/c2nc(C(C)(C)C)cs2)c(O)c1 [Compound of formula (21)]
>100 ppm: MIC values in ppm P. aeruginosa [1] | MIC values in ppm C. albicans [2] | MIC values in ppm S. aureus [3] | MIC values in ppm E. coli [4] | MIC values in ppm A. niger [5]

COc1ccc(/C=C/c2nc(-c3ccc(N4CCCC4)cc3)cs2)cc1O [Compound of formula (29)]
>100 ppm: MIC values in ppm P. aeruginosa [1] | MIC values in ppm C. albicans [2] | MIC values in ppm S. aureus [3] | MIC values in ppm E. coli [4] | MIC values in ppm A. niger [5]

COc1cc(/C=C/c2nc(-c3ccccc3)cs2)cc(O)c1OC [Compound of formula (57)]
>100 ppm: MIC values in ppm P. aeruginosa [1] | MIC values in ppm C. albicans [2] | MIC values in ppm S. aureus [3] | MIC values in ppm E. coli [4] | MIC values in ppm A. niger [5]

Cc1cccc(/C=C/c2nc(C(C)(C)C)cs2)c1O [Compound of formula (24)]
>100 ppm: MIC values in ppm P. aeruginosa [1] | MIC values in ppm C. albicans [2] | MIC values in ppm S. aureus [3] | MIC values in ppm E. coli [4] | MIC values in ppm A. niger [5]
